Series [1] deals with P-bodies (EDC4 foci) in HEK293T cells. Kind of series: Immunofluorescence phenotypic screen for P-bodies (α-EDC4) in glucose-deprived HEK293T cells. In kind it is cell-based. Conditions: glucose-deprived HEK293T cells, 25 μM, 2 h. The method, then:
(§1) SuTEx compound treatments. Prior to treatments, cells were washed twice with warm phosphate-buffered saline (PBS) and exchanged with serum-free DMEM (supplemented with 1% L-glutamine) for at least 30 minutes at 37° C. with 5% CO2. Compounds were then added as 1000×DMSO stocks (10 μL for 10 cm dishes and 3 μL for 6-well dishes), plates were mixed gently, and cells were incubated for two hours. All compounds were thoroughly vortexed and sonicated for five minutes prior to addition to ensure complete solvation. For microscopy experiments, cultures were seeded at 150,000 cells in 3 mL of DMEM in 6-well THERMO SCIENTIFIC™ BIOLITE™ brand microwell plates (Catalog No. 12556004; Thermo Fisher Scientific Inc., Waltham, Massachusetts. United States of America). For collection, media was aspirated, and cells were washed once with cold PBS before scraping from plates. Cells were centrifuged at 500×g at 4° C. for 5 minutes and supernatant was removed. Cell pellets were resuspended in cold PBS (1 mL) and centrifuged at 1,400×g at 4° C. for 3 minutes. Supernatant was again removed, and pellets were then snap-frozen in liquid nitrogen and stored at −80° C. until needed.
(§2) Immunofluorescence. Immunofluorescence (IF) of HEK293T cells was performed as previously described in Ciancone et al., 2022. HeLa cells were seeded at 9.0×10^4 in a 24-well plate with 12-mm glass coverslips. The next day, the cells were treated with 25 μM SuTEx probe for 2 hours in DMEM medium without FBS. The cells were then treated with 75 μM NaAsO2 for 30 minutes and fixed with 3% paraformaldehyde in PBS for 15 minutes at room temperature (RT) and washed with PBS twice. The fixed cells were permeabilized with PBST (0.1% Triton X-100) for 15 minutes at room temperature and blocked with 5% goat serum in PBST for 30 minutes at RT. The cells were incubated with anti-G3BP1 antibody H-10 (Catalog No. sc-365338 at 1:200 dilution; Santa Cruz Biotechnology, Inc., Dallas, Texas, United States of America) for 2 hours at RT and washed with PBST (0.1% Tween-20) for 5 minutes three times. Next, cells were incubated with goat anti-mouse Alexa 594 antibody (Catalog No. 115-585-003 at 1:800 dilution; Jackson ImmunoResearch, West Grove, Pennsylvania, United States of America) for 30 minutes at RT. The cells were washed twice with PBST, stained with Hoechst 33342 (Catalog No. H3570 at […]; Thermo Fischer Scientific) in PBST for 5 minutes, and washed with PBS twice for 5 minutes. The coverslips were mounted in PROLONG™ Gold AntiFade Mountant (Catalog No. P36930, Thermo Fisher Scientific) and imaged using NIS Elements AR software and a Nikon Eclipse Ti microscope equipped with a ×100 objective and CMOS camera. […] A CellProfiler pipeline was developed to quantify the number of stress granules under each condition. Briefly, cells were recognized as blue^+ (nuclei) red^+ (G3BP1) objects, and the red^+ granules that meet the shape and size threshold were identified and counted. Cells on the border of linages were excluded from the analysis for more accurate quantification.
Data Analysis—Microscopy. All slides were blinded for imaging. Leica SP5X images were analyzed using Fiji (ImageJ). Custom macros were written for analysis and can be obtained upon request. To elaborate, images were split into channels based on the different laser wavelengths measured. Image stacks were then combined using ‘Z-Project’ with an average intensity parameter and a threshold was applied to exclude noise based on the negative control (no EDC4 antibody). The ‘Analyze Particles’ function was used with relevant size and circularity constraints (0.85-1.00) to count the number of foci, with total PBs having a diameter of >150 nm, and large PBs>450 nm. The number of foci was normalized to the number of cells (defined by a DAPI stain count) in each linage, and the number of foci per cell was averaged across technical replicates. Every sample had at least two technical replicates and two independent biological replicates. […]

In series [2] the test system is stress granules (G3BP1 foci) in HeLa cells. Kind of series: Immunofluorescence phenotypic screen for stress granules (α-G3BP1) in stressed HeLa cells. In kind it is cell-based. As to conditions: 2 h; for effect on SGs (in words): 25 μM; for inhibition at 25 µM: read-out: reduction/inhibition of SGs/cell. How it is done: as §1, §2
We used immunofluorescence (IF) detection for phenotypic screening of SuTEx compound activity on stress-induced PB and SG levels in cells (FIG. 1B). PBs were induced through glucose deprivation of HEK293T cells and detected by immunofluorescence with anti-enhancer of mRNA-decapping protein 4 (EDC4) as previously described (Kedersha & Anderson, 2007; Ciancone et al., 2022) (~4 vs 2 PBs/cell in −glucose and +glucose conditions, respectively; FIG. 8). EDC4 is an established PB marker for mammalian cells and is important for PB formation (Kedersha & Anderson, 2007; Luo et al., 2018). SGs were induced in HeLa cells by [COMPOUND LEFT OUT] treatments and detected by fluorescent staining with anti-Ras GTPase-activating protein-binding protein 1 (G3BP1) antibody (75 μM [COMPOUND LEFT OUT], 30 min; FIG. 9). G3BP1 foci have been used in previous IF studies to identify SGs in cells (Kedersha & Anderson, 2007). […]

Series [3] can be described thus: Lipophilic efficiency calculation (cLogP from ChemDraw). Conditions: from IC50 (AHL-030) or EC50 (HHS-166) and cLogP. The method, then:
Lipophilic efficiency calculations for AHL-030 and HHS-166. Lipophilic efficiency was calculated as previously described in Leeson & Springthorpe, 2007 using IC50 (AHL-030) and EC50 (HHS-166) potency values from experiments and c Log P values from ChemDraw (Version 20.0.0.41 on a Windows PC): […]

“Also recorded” adds a separate entry of the source. Bounds are passed on as bounds.

For `CC(C)c1cc(C(C)C)c(S(=O)(=O)n2cc(-c3ccc(C(F)(F)F)cc3)nn2)c(C(C)C)c1` [AHL-003], the “effect on PBs (in words)” value in series [1] is on record as “block both types of RNP granules; also recorded: inhibited”. Further, the “effect on SGs (in words)” value in series [2] is reported as “block both types of RNP granules; also recorded: inhibited”. Besides, in series [2] (Homo sapiens), the inhibition at 25 µM was over 70%.
In the case of `COc1ccc(S(=O)(=O)n2cc(CS(C)(=O)=O)nn2)cc1` [AHL-030, 1-((4-Methoxyphenyl)sulfonyl)-4-((methylsulfonyl)methyl)-1H-1,2,3-triazole], the “effect on PBs (in words)” value in series [1] is on record as “PB-inhibitory; also recorded: modestly inhibiting PBs; also recorded: decreased PBs”. Further, the “effect on SGs (in words)” value in series [2] is reported as “SG enhancer; also recorded: SG-enhancing; also recorded: enhance SGs; also recorded: increased SGs”. Also, the fold induction at 25 µM in series [2] (Homo sapiens, read-out: increase in SGs per cell) is about 2. For the same molecule, the “LipE (lipophilic efficiency)” value in series [3] is given as 7.
For `COc1ccc(S(=O)(=O)n2cc(C3CCCCC3)nn2)cc1` [HHS-166, 4-Cyclohexyl-1-((4-methoxyphenyl)sulfonyl)-111-1,2,3-triazole], the “effect on SGs (in words)” value in series [2] is “moderate, but statistically significant inhibitory activity; also recorded: enriched activity; also recorded: inhibits SG assembly; also recorded: inhibited SGs”. Further, the inhibition at 25 µM in series [2] (Homo sapiens) is about 50%. Further, the “LipE (lipophilic efficiency)” value in series [3] was 3.

Source of the values: patent US20260294874A1, “COMPOSITIONS COMPRISING MODULATORS OF RIBONUCLEOPROTEIN GRANULE FORMATION AND DISSOLUTION AND METHODS OF USE THEREOF” (University of Virginia Patent Foundation, priority 2023, published 2026).
